Source: patent US20260207722A1, “COMBINATION FOR TREATMENT OF AUTOIMMUNE DISEASES” (Bonsai Biotherapeutics AB, priority 2023, published 2026)

Tested on: experimental autoimmune myasthenia gravis (EAMG)
Test: EAMG clinical score, rats treated with TOL2 and/or diclofenac (Example 2)
Assay type: in vivo, rat
Settings: treatment 40 days after EAMG induction; diclofenac 10 mg/kg ip; TOL2 500 μg iv alone, 250 μg iv in the combination; vs PBS-treated controls; FIG. 3A

Compound: O=C(O)Cc1ccccc1Nc1c(Cl)cccc1Cl [diclofenac]
- EAMG score: did not show any improvement
